# pIC50: −log10 of the molar value.
# Molecular target: T1, Met kinase (Homo sapiens, UniProt P08581)
# T1 construct: 6His (N); purchased Upstate 14-526; host or cells: Sf21 insect cells (S. frugiperda), baculovirus
# Experiment: Met kinase inhibition, flashplate method
# Assay type: biochemical
# Details: 33P-ATP, substrate pAGLT, 3 hrs at room temperature, read-out: IC50 (enzyme)
# Description: Measurement of Met Kinase Activity
# According to the manufacturer's data (Met, active, upstate, catalogue No. 14-526), Met kinase is expressed for the purposes of protein production in insect cells (Sf21; S. frugiperda) and subsequent affinity-chromatographic purification as “N-terminal 6His-tagged” recombinant human protein in a baculovirus expression vector.
# Flashplate Method (Met Kinase)
# The test plates used are 96-well Flashplate® microtitre plates from Perkin Elmer (Cat. No. SMP200). The components of the kinase reaction described below are pipetted into the assay plate. The Met kinase and the substrate poly Ala-Glu-Lys-Tyr, (pAGLT, 6:2:5:1), are incubated for 3 hrs at room temperature with radioactively labelled ^33P-ATP in the presence and absence of test substances in a total volume of 100 μl. The reaction is terminated using 150 μl of a 60 mM EDTA solution. After incubation for a further 30 min at room temperature, the supernatants are filtered off with suction, and the wells are washed three times with 200 μl of 0.9% NaCl solution each time. The measurement of the bound radioactivity is carried out by means of a scintillation measuring instrument (Topcount NXT, Perkin-Elmer).
# The full value used is the inhibitor-free kinase reaction. This should be approximately in the range 6000-9000 cpm. The pharmacological zero value used is staurosporin in a final concentration of 0.1 mM. The inhibitory values (IC50) are determined using the RS1_MTS program.
# Kinase Reaction Conditions Per Well:
# • 30 μl of assay buffer • 10 μl of substance to be tested in assay buffer with 10% of DMSO • 10 μl of ATP (final concentration 1 μM cold, 0.35 μCi of ^33P-ATP) • 50 μl of Met kinase/substrate mixture in assay buffer; • (10 ng of enzyme/well, 50 ng of pAGLT/well)
# Assay Buffer: • 50 mM HEPES • 3 mM magnesium chloride • 3 μM sodium orthovanadate • 3 mM manganese(II) chloride • 1 mM dithiothreitol (DTT) • pH=7.5 (to be set using sodium hydroxide)
# Stop Solution: • 60 mM Titriplex III (EDTA)
# ^33P-ATP: Perkin-Elmer; • Met kinase: Upstate, Cat. No. 14-526, Stock 1 μg/10 μl; spec. activity 954 U/mg; • Poly-Ala-Glu-Lys-Tyr, 6:2:5:1: Sigma Cat. No. P1152
# T1 sequence (P08581 974-1390 limits assumed): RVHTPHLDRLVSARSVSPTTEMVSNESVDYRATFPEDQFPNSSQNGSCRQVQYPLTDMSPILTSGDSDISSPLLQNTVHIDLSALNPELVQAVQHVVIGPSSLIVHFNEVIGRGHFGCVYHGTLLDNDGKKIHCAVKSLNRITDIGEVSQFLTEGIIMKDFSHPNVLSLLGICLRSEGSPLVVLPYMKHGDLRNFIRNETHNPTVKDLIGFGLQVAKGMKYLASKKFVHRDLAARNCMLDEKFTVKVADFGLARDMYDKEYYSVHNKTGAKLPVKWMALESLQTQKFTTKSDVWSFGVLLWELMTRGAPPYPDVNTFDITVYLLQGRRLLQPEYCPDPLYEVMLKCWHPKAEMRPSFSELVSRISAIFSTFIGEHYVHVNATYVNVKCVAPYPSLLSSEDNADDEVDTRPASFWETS
row,SMILES,pIC50
1,O=C(Nc1cccc(CN2N=C(c3ccccc3O)CSC2=O)c1)c1cccnc1 [Compound B6],6.00 to 8.00
2,O=C(Nc1cccc(CN2N=C(c3cc(Cl)ccc3O)CSC2=O)c1)c1cccnc1 [Compound B4],6.00 to 8.00
3,CCNCCCOC(=O)Nc1cccc(CN2N=C(c3ccc(C#N)cc3)CSC2=O)c1 [Compound A33],6.00 to 8.00
4,CC(c1cccc(NC(=O)OCCCN2CCN(C)CC2)c1)N1N=C(c2ccc(F)c(F)c2)CSC1=O (stereo not shown) [Compound A30],6.00 to 8.00
5,CCOC(=O)Nc1cccc(CN2N=C(c3ccc(Cl)cc3)CSC2=O)c1 [Compound A7],6.00 to 8.00
6,COc1ccccc1C1=NN(Cc2cccc(NC(=O)OCCCN(C)C)c2)C(=O)SC1 [Compound A17],6.00 to 8.00
7,CN(C)CCCOC(=O)Nc1cccc(CN2N=C(c3cccc(F)c3)CSC2=O)c1 [Compound A11],6.00 to 8.00

# Next, values leading:
row,pIC50,SMILES
1,6.00 to 8.00,CN(C)CCCOC(=O)Nc1cccc(CN2N=C(c3ccc(Cl)cc3)CSC2=O)c1 [Compound A6]
2,6.00 to 8.00,CN(C)CCCOC(=O)Nc1cccc(CN2N=C(c3ccc(C#N)cc3)CSC2=O)c1 [Compound A20]
3,6.00 to 8.00,CN(C)CCCOC(=O)Nc1cccc(CN2N=C(c3ccccc3F)CSC2=O)c1 [Compound A12]
4,6.00 to 8.00,CC(c1cccc(NC(=O)OCCCN(C)C)c1)N1N=C(c2ccc(F)c(F)c2)CSC1=O (stereo not shown) [Compound A31]
5,6.00 to 8.00,"CNCC(=O)Nc1cccc(CN2N=C(c3cc(Cl)ccc3O)CSC2=O)c1 [Compound B1, N-{3-[5-(5-chloro-2-hydroxyphenyl)-2-oxo-6H-1,3,4-thiadiazin-3-ylmethyl]phenyl}-2-methylaminoacetamide]"
6,6.00 to 8.00,CC(c1cccc(NC(=O)OCCCN2CCOCC2)c1)N1N=C(c2ccc(F)c(F)c2)CSC1=O (stereo not shown) [Compound A29]

# — patent publication US7902186B2, “Substituted 5-phenyl-3,6-dihydro-2-oxo-6H-1,3,4-thiadiazines” (Merck Patent GmbH, priority 2005, dated 2011)
